In paper PMC9250534, “Synthesis and direct assay of large macrocycle diversities by combinatorial late-stage modification at picomole scale” (Nature Communications, 2022):

Target: MDM2 (Homo sapiens, UniProt Q00987)
Experiment: MDM2 binding screen of Libraries 3 and 4: displacement of fluorescent probe F-M8 at 750 nM macrocycle
Description: The cyclic peptide scaffolds required for Libraries 3 and 4 were synthesized as described for those used in Library 2. Due to the presence of many N-methylated amino acids which are more difficult to couple, 200 mM HOAt was applied together with HATU. The scaffolds were diluted to 2 mM in DMSO, and 15 nL were transferred using acoustic dispensing, followed by 15 nL DMSO containing carboxylic acids (40 mM, 20 equiv.), HBTU (40 mM) and DABCO (40 mM). After 6 h reaction at room temperature, 370 nL of DMSO was added to each well, followed by 5 μL of 100 mM Tris-Cl pH 7.4 containing 0.01% v/v Tween20, for quenching overnight.

[1] = Panel b, Library 3: 63 scaffolds combinatorially acylated with 15 carboxylic acids at 30 picomole scale, displacement of fluorescent peptide probe, macrocycle 750 nM
[2] = Panel c, Library 4: best nine scaffolds and 15 additional carboxylic acids, displacement of fluorescent probe

Chain of MDM2 (Q00987 whole entry): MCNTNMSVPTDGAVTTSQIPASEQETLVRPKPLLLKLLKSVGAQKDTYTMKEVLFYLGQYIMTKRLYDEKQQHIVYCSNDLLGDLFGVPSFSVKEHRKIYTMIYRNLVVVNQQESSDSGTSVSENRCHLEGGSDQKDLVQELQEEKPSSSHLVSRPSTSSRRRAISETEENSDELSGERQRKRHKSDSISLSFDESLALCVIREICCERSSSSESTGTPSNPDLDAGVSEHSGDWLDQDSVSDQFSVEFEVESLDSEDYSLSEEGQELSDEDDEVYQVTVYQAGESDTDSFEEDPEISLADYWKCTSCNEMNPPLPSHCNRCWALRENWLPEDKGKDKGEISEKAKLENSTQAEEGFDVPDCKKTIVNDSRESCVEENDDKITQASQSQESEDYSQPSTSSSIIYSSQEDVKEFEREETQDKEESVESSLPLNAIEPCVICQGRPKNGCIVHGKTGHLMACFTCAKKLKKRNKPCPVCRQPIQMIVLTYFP

SMILES | fraction of fluorescent probe displaced [1] | fraction of fluorescent probe displaced [2]
O=C1CCSSCCNC(=O)[C@H](Cc2c[nH]c3cc(Cl)ccc23)NC(=O)[C@H](CNC(=O)C2COc3ccccc3O2)NC(=O)C2(CC2)CN1 (stereo partly drawn) [X-Amcp-Dap-Cl-Trp + Acid 115] | -0.012 | 
O=C(/C=C/c1ccc(OCc2ccccc2)cc1)NC[C@H]1NC(=O)C2(CC2)CNC(=O)CCSSCCNC(=O)[C@H](Cc2ccc3ccccc3c2)NC1=O [X-Amcp-D-Dap-2-Nal + Acid 110] | 0.028 | 
O=C(/C=C/c1cccc(C(F)(F)F)c1)NC[C@@H]1NC(=O)[C@H]2CCCN(C2)C(=O)CCSSCCNC(=O)[C@H](Cc2c[nH]c3ccccc23)NC1=O [X-Nip-Dap-Trp + Acid 122] |  | 0.395
O=C(CCS(=O)(=O)c1ccccc1)NCCN1CC(=O)N[C@H](Cc2c[nH]c3ccccc23)C(=O)NCCSSCCC(=O)NCC2(CC2)C1=O [X-Amcp-N-Aeg-D-Trp + Acid 114] | 0.055 | 
CN1C(=O)[C@@H](CNC(=O)CCS(=O)(=O)c2ccccc2)NC(=O)[C@H]2CCCN(C2)C(=O)CCSSCCNC(=O)[C@@H]1Cc1c[nH]c2ccccc12 [X-Nip-D-Dap-NMe-Trp + Acid 114] | 0.008 | 
O=C(/C=C/c1ccc2ccccc2c1)NC[C@H]1NC(=O)[C@H]2CCCN(C2)C(=O)CCSSCCNC(=O)[C@@H](Cc2c[nH]c3ccccc23)NC1=O [X-Nip-D-Dap-D-Trp + Acid 112] | 0.075 | 
O=C1CCSSCCNC(=O)[C@H](Cc2c[nH]c3ccccc23)NC(=O)[C@@H](CNC(=O)c2ccc(Cl)s2)NC(=O)C2(CC2)CN1 [X-Amcp-D-Dap-Trp + Acid 14] | -0.00533 | 
O=C(CCS(=O)(=O)c1ccccc1)NCCN1CC(=O)N[C@@H](Cc2c[nH]c3ccccc23)C(=O)NCCSSCCC(=O)N2CCC[C@@H](C2)C1=O [X-Nip-N-Aeg-Trp + Acid 114] | 0.035 | 
O=C(CCS(=O)(=O)c1ccccc1)NC[C@H]1NC(=O)C2(CC2)CNC(=O)CCSSCCNC(=O)[C@H](Cc2cccc3ccccc23)NC1=O [X-Amcp-D-Dap-1-NaI + Acid 114] | 0.028 | 
O=C(/C=C/c1ccc(OCc2ccccc2)cc1)NC[C@H]1NC(=O)[C@@H]2CN(CCO2)C(=O)CCSSCCNC(=O)[C@H](Cc2c[nH]c3cc(Cl)ccc23)NC1=O [X-Cop-D-Dap-Cl-Trp + Acid 110] | 0.035 | 
CC(Oc1cccc(Cl)c1)C(=O)NCCN1CC(=O)N[C@@H](Cc2cn(C)c3ccccc23)C(=O)NCCSSCCC(=O)N2CCC[C@@H](C2)C1=O (stereo partly drawn) [X-Nip-N-Aeg-Me-Trp + Acid 113] | 0.008 | 
CN1C(=O)[C@@H](CNC(=O)c2cccc(Oc3ccccc3)c2)NC(=O)C2(CC2)CNC(=O)CCSSCCNC(=O)[C@@H]1Cc1c[nH]c2ccccc12 [X-Amcp-D-Dap-NMe-Trp + Acid 111] | 0.00133 | 
Cn1cc(C[C@@H]2NC(=O)[C@@H](CNC(=O)c3ccc(Cl)s3)NC(=O)[C@H]3CCCN(C3)C(=O)CCSSCCNC2=O)c2ccccc21 [X-Nip-D-Dap-Me-Trp + Acid 14] | 0.008 | 
O=C(/C=C/c1ccc(Cl)cc1)NC[C@H]1NC(=O)[C@H]2CCCN(C2)C(=O)CCSSCCNC(=O)[C@H](Cc2ccc3ccccc3c2)NC1=O [X-Nip-D-Dap-2-Nal + Acid 108] | 0.021 | 
CN1C(=O)[C@@H](CNC(=O)CCS(=O)(=O)c2ccccc2)NC(=O)C2(CC2)CNC(=O)CCSSCCNC(=O)[C@@H]1Cc1c[nH]c2ccccc12 [X-Amcp-D-Dap-NMe-Trp + Acid 114] | 0.055 | 
O=C(/C=C/c1ccc(Cl)cc1)NC[C@@H]1NC(=O)C2(CC2)CNC(=O)CCSSCCNC(=O)[C@H](Cc2ccc3ccccc3c2)NC1=O [X-Amcp-Dap-2-Nal + Acid 108] | 0.008 | 
O=C(/C=C/c1ccc(F)cc1)NC[C@@H]1NC(=O)[C@H]2CCCN(C2)C(=O)CCSSCCNC(=O)[C@H](Cc2cccc3ccccc23)NC1=O [X-Nip-Dap-1-NaI + Acid 116] |  | 0.052
O=C(/C=C/c1ccc(Cl)cc1)NC[C@H]1NC(=O)C2(CC2)CNC(=O)CCSSCCNC(=O)[C@H](Cc2cccc3ccccc23)NC1=O [X-Amcp-D-Dap-1-NaI + Acid 108] | 0.021 | 
CN1C(=O)[C@H](CNC(=O)c2cccc(Oc3ccccc3)c2)NC(=O)[C@H]2CCCN(C2)C(=O)CCSSCCNC(=O)[C@@H]1Cc1c[nH]c2ccccc12 [X-Nip-Dap-NMe-Trp + Acid 111] | -0.019 | 
O=C(NC[C@H]1NC(=O)[C@H]2CCCN(C2)C(=O)CCSSCCNC(=O)[C@H](Cc2cccc3ccccc23)NC1=O)C1COc2ccccc2O1 (stereo partly drawn) [X-Nip-D-Dap-1-NaI + Acid 115] | 0.021 | 
CCCOc1ccc(/C=C/C(=O)NC[C@@H]2NC(=O)[C@H]3CCCN(C3)C(=O)CCSSCCNC(=O)[C@H](Cc3ccc4ccccc4c3)NC2=O)cc1 [X-Nip-Dap-2-Nal + Acid 118] |  | 0.012

SMILES | fraction of fluorescent probe displaced [1] | fraction of fluorescent probe displaced [2]
O=C(NC[C@@H]1NC(=O)[C@H]2CCCN(C2)C(=O)CCSSCCNC(=O)[C@H](Cc2c[nH]c3cc(Cl)ccc23)NC1=O)c1cccc(Oc2ccccc2)c1 [X-Nip-Dap-Cl-Trp + Acid 111] | 0.075 | 
CN1C(=O)[C@@H](CNC(=O)/C=C/c2ccncc2)NC(=O)[C@H]2CCCN(C2)C(=O)CCSSCCNC(=O)[C@@H]1Cc1c[nH]c2ccccc12 [X-Nip-D-Dap-NMe-Trp + Acid 106] | -0.00844 | 
CN1C(=O)[C@H](CNC(=O)/C=C/c2ccc(OCc3ccccc3)cc2)NC(=O)C2(CC2)CNC(=O)CCSSCCNC(=O)[C@@H]1Cc1c[nH]c2ccccc12 [X-Amcp-Dap-NMe-Trp + Acid 110] | 0.015 | 
Cn1cc(C[C@@H]2NC(=O)[C@H](CNC(=O)/C=C/c3ccc4ccccc4c3)NC(=O)C3(CC3)CNC(=O)CCSSCCNC2=O)c2ccccc21 [X-Amcp-Dap-Me-Trp + Acid 112] | 0.028 | 
CN1C(=O)CN(CCNC(=O)c2ccc(Cl)s2)C(=O)[C@H]2CCCN(C2)C(=O)CCSSCCNC(=O)[C@@H]1Cc1c[nH]c2ccccc12 [X-Nip-N-Aeg-NMe-Trp + Acid 14] | 0.00133 | 
CCOc1ccc(/C=C/C(=O)NC[C@@H]2NC(=O)[C@@H]3CN(CCO3)C(=O)CCSSCCNC(=O)[C@H](Cc3c[nH]c4cc(Cl)ccc34)NC2=O)cc1 [X-Cop-Dap-Cl-Trp + Acid 117] |  | 0.175
O=C1CCSSCCNC(=O)[C@H](Cc2cccc3ccccc23)NC(=O)[C@H](CNC(=O)c2cccc(Oc3ccccc3)c2)NC(=O)C2(CC2)CN1 [X-Amcp-Dap-1-NaI + Acid 111] | 0.008 | 
O=C(/C=C/c1ccc(OCc2ccccc2)cc1)NC[C@H]1NC(=O)[C@@H]2CN(CCO2)C(=O)CCSSCCNC(=O)[C@H](Cc2cccc3ccccc23)NC1=O [X-Cop-D-Dap-1-NaI + Acid 110] | 0.048 | 
O=C(O)/C=C/c1ccc(Cl)c(Cl)c1 [Acid 119] |  | 0.012
O=C(NC[C@@H]1NC(=O)[C@@H]2CN(CCO2)C(=O)CCSSCCNC(=O)[C@H](Cc2cccc3ccccc23)NC1=O)c1ccc(Cl)s1 [X-Cop-Dap-1-NaI + Acid 14] | 0.008 | 
O=C(/C=C/c1ccncc1)NC[C@H]1NC(=O)C2(CC2)CNC(=O)CCSSCCNC(=O)[C@H](Cc2c[nH]c3cc(Cl)ccc23)NC1=O [X-Amcp-D-Dap-Cl-Trp + Acid 106] | 0.018 | 
O=C(/C=C/c1ccc(OCc2ccccc2)cc1)NC[C@H]1NC(=O)[C@H]2CCCN(C2)C(=O)CCSSCCNC(=O)[C@H](Cc2c[nH]c3cc(Cl)ccc23)NC1=O [X-Nip-D-Dap-Cl-Trp + Acid 110] | 0.008 | 
CN1C(=O)[C@@H](CNC(=O)/C=C/c2ccc3ccccc3c2)NC(=O)[C@@H]2CN(CCO2)C(=O)CCSSCCNC(=O)[C@@H]1Cc1c[nH]c2ccccc12 [X-Cop-D-Dap-NMe-Trp + Acid 112] | 0.035 | 
CC(Oc1cccc(Cl)c1)C(=O)NCCN1CC(=O)NC(Cc2cccc3ccccc23)C(=O)NCCSSCCC(=O)N2CCCC(C2)C1=O (mixture of isomers) [X-Nip-N-Aeg-1-NaI + Acid 113] | -0.00533 | 
CN1C(=O)[C@H](CNC(=O)c2cccc(Oc3ccccc3)c2)NC(=O)C2(CC2)CNC(=O)CCSSCCNC(=O)[C@@H]1Cc1c[nH]c2ccccc12 [X-Amcp-Dap-NMe-Trp + Acid 111] | -0.012 | 
O=C1CN(CCNC(=O)c2ccc(Cl)cc2)C(=O)C2CN(CCO2)C(=O)CCSSCCNC(=O)C(Cc2cccc3ccccc23)N1 (stereo not drawn) [X-Cop-N-Aeg-1-NaI + Acid 25] | 0.008 | 
O=C1CCSSCCNC(=O)[C@H](Cc2c[nH]c3cc(Cl)ccc23)NC(=O)[C@H](CNC(=O)c2ccc3ccccc3c2)NC(=O)C2(CC2)CN1 [X-Amcp-Dap-Cl-Trp + Acid 107] | 0.00455 | 
O=C(NC[C@H]1NC(=O)[C@H]2CCCN(C2)C(=O)CCSSCCNC(=O)[C@H](Cc2c[nH]c3ccccc23)NC1=O)c1ccc(Cl)cc1 [X-Nip-D-Dap-Trp + Acid 25] | -0.00533 | 
O=C1CCSSCCNC(=O)[C@H](Cc2cccc3ccccc23)NC(=O)[C@H](CNC(=O)c2ccc(Cl)s2)NC(=O)C2(CC2)CN1 [X-Amcp-Dap-1-NaI + Acid 14] | -0.019 | 
Cn1cc(C[C@@H]2NC(=O)CN(CCNC(=O)c3ccc4ccccc4c3)C(=O)[C@H]3CCCN(C3)C(=O)CCSSCCNC2=O)c2ccccc21 [X-Nip-N-Aeg-Me-Trp + Acid 107] | 0.011 | 
O=C1CCSSCCNC(=O)[C@H](Cc2c[nH]c3ccccc23)NC(=O)[C@H](CNC(=O)c2ccc3ccccc3c2)NC(=O)C2(CC2)CN1 [X-Amcp-Dap-Trp + Acid 107] | 0.063 | 
